# Values quoted from earlier work in US4195171A, “Derivatives of an antibiotic XK-62-2 and process for the production thereof” (Abbott Laboratories, priority 1975, dated 1980).
# Conditions: cited from earlier work
smiles,measurement,setting,value
CNCC1CCC(N)C(OC2C(N)CC(N)C(OC3OCC(C)(O)C(NC)C3O)C2O)O1 (centres unmarked) [XK-62-2],solubility in acetone,acetone,slightly soluble
same,solubility in benzene,benzene,insoluble
same,solubility in chloroform,chloroform,insoluble
same,solubility in ethanol,ethanol,slightly soluble
same,solubility in ethyl acetate,ethyl acetate,insoluble
same,solubility in methanol,methanol,freely soluble
same,solubility in n-hexane,n-hexane,insoluble
same,solubility in water,water,freely soluble
